{
  "source": "paper PMC9241695",
  "about": "“Selective Metal Chelation by a Thiosemicarbazone Derivative Interferes with Mitochondrial Respiration and Ribosome Biogenesis in Candida albicans” (Microbiology Spectrum, 2022)",
  "key": {"[1]": {"test_system": "A. fumigatus AF293", "assay": "Antifungal susceptibility testing, microbroth dilution MIC", "format": "cell-based", "details": "Aspergillus fumigatus, AF293; standard strain of A. fumigatus; 48 h; read-out: MIC (μg/mL) against fungi AF293", "text": "(§1) Compound library. The thiosemicarbazone derivatives Triapine and COTI-2 were purchased from Med Chem Express (MCE). The other 87 thiosemicarbazones used in this study were previously synthesized by our collaborators (1, 2). Their structures are shown in Table 1 and Table S1 to help the reader clearly understand the relationship between structure and activity.\n(§2) Strains and culture conditions. Clinically derived C. albicans isolates, including G5, F5, and Gu5, were kindly provided by Professor Joachim Morschhäuser of the University of Würzburg. Other clinical C. albicans isolates were kindly donated by Professor Qingguo Qi of Shandong University and Qianfoshan Hospital of Shandong Province Other Candida strains were obtained from Jinan Central Hospital.\n(§3) The zap1 mutant and its complemented strain were kindly provided by Professor Aaron P. Mitchell of Carnegie Mellon University (3). The C. neoformans strains used in this study was kindly donated by Professor Guojian Liao of Southwest University and A. fumigatus strain used in this study was provided by Professor Ling Lu of Nanjing Normal University. […]\n(§4) Antifungal susceptibility testing. To determine in vitro antifungal activities, the microbroth dilution method was carried out in RPMI1640 medium according to the guidelines of the Clinical and Laboratory Standards Institute (4, 5). The initial concentration in RPMI1640 medium was 1 × 10^3 CFU/mL for the C. albicans and C. neoformans suspensions but 1 × 10^4 CFU/mL for A. fumigatus. The range of final drug concentrations was 0.0156–64 μg/mL. The plates were incubated at35°C for 24 […]\n(§5) h (for C. albicans, C. krusei, C. tropicalis, C. parapsilosis) or 48 h (for C. neoformans, A. fumigatus). The MIC was determined based on visible growth inhibition compared with the control. All experiments were performed in duplicate. […]"}, "[2]": {"test_system": "C. neoformans H99", "assay": "Antifungal susceptibility testing, microbroth dilution MIC", "format": "cell-based", "details": "Cryptococcus neoformans, H99; C. neoformans wild-type strain; 48 h; read-out: MIC (μg/mL) against fungi H99", "text": "as §1, §2, §3, §4, §5"}, "[3]": {"test_system": "C. albicans SC5314", "assay": "Antifungal susceptibility testing, microbroth dilution MIC", "format": "cell-based", "details": "Candida albicans, SC5314; C. albicans wild-type strain; RPMI1640, 35°C, 24 h; read-out: MIC (μg/mL) against fungi SC5314", "text": "as §1, §2\n(§6) The zap1 mutant and its complemented strain were kindly provided by Professor Aaron P. Mitchell of Carnegie Mellon University (3). The C. neoformans strains used in this study was kindly donated by Professor Guojian Liao of Southwest University and A. fumigatus strain used in this study was provided by Professor Ling Lu of Nanjing Normal University. Before in vitro and in vivo experiments, all C. albicans strains were grown on YPD agar plates. After culturing at 30°C for 24 h, colonies of each strain were cultured in liquid YPD medium at 30°C with continuous shaking […]\nas §4, §5"}, "[4]": {"test_system": "C. parapsilosis CP001", "assay": "Microbroth dilution MIC80", "format": "cell-based, Candida parapsilosis", "details": "Lodderomyces parapsilosis; C. parapsilosis CP001; read-out: MIC80", "text": "as §1, §2, §6, §4, §5"}, "[5]": {"test_system": "C. albicans SC5314", "assay": "Drug resistance study by serial passage", "format": "cell-based, Candida albicans", "details": "RPMI 1640 medium, 40-day period, passages at 0.5 × MIC"}, "[6]": {"test_system": "C. albicans F5", "assay": "Microbroth dilution MIC80", "format": "cell-based", "details": "Candida albicans; C. albicans F5; read-out: MIC80", "text": "as §1, §2, §6, §4, §5"}, "[7]": {"test_system": "C. albicans DSY654", "assay": "Microbroth dilution MIC80", "format": "cell-based", "details": "Candida albicans", "text": "as §1, §2, §6, §4, §5"}, "[8]": {"test_system": "C. albicans 24g", "assay": "Microbroth dilution MIC80", "format": "cell-based", "details": "Candida albicans; C. albicans 24g; read-out: MIC80", "text": "as §1, §2, §6, §4, §5"}, "[9]": {"test_system": "C. neoformans 108", "assay": "Microbroth dilution MIC80", "format": "cell-based", "details": "Cryptococcus neoformans; C. neoformans 108; read-out: MIC80", "text": "as §1, §2, §6, §4, §5"}, "[10]": {"test_system": "C. albicans CA1", "assay": "Microbroth dilution MIC80", "format": "cell-based", "details": "Candida albicans; C. albicans CA1; read-out: MIC80", "text": "as §1, §2, §6, §4, §5"}, "[11]": {"test_system": "C. albicans YEM13", "assay": "Microbroth dilution MIC80", "format": "cell-based", "details": "Candida albicans", "text": "as §1, §2, §6, §4, §5"}, "[12]": {"test_system": "C. albicans YEM15", "assay": "Microbroth dilution MIC80", "format": "cell-based", "details": "Candida albicans; C. albicans YEM15; read-out: MIC80", "text": "as §1, §2, §6, §4, §5"}, "[13]": {"test_system": "C. albicans 28D", "assay": "Microbroth dilution MIC80", "format": "cell-based", "details": "Candida albicans; C. albicans 28D; read-out: MIC80", "text": "as §1, §2, §6, §4, §5"}, "[14]": {"test_system": "C. albicans CA4", "assay": "Microbroth dilution MIC80", "format": "cell-based", "details": "Candida albicans; C. albicans CA4; read-out: MIC80", "text": "as §1, §2, §6, §4, §5"}, "[15]": {"test_system": "C. albicans 28I", "assay": "Microbroth dilution MIC80", "format": "cell-based", "details": "Candida albicans; C. albicans 28I; read-out: MIC80", "text": "as §1, §2, §6, §4, §5"}, "[16]": {"test_system": "C. albicans 11f", "assay": "Microbroth dilution MIC80", "format": "cell-based", "details": "Candida albicans; C. albicans 11f; read-out: MIC80", "text": "as §1, §2, §6, §4, §5"}, "[17]": {"test_system": "C. albicans 11e", "assay": "Microbroth dilution MIC80", "format": "cell-based", "details": "Candida albicans; C. albicans 11e; read-out: MIC80", "text": "as §1, §2, §6, §4, §5"}, "[18]": {"test_system": "C. albicans 28A", "assay": "Microbroth dilution MIC80", "format": "cell-based", "details": "Candida albicans; C. albicans 28A; read-out: MIC80", "text": "as §1, §2, §6, §4, §5"}, "[19]": {"test_system": "C. albicans CA3", "assay": "Microbroth dilution MIC80", "format": "cell-based", "details": "Candida albicans; C. albicans CA3; read-out: MIC80", "text": "as §1, §2, §6, §4, §5"}, "[20]": {"test_system": "A. fumigatus 1161", "assay": "Microbroth dilution MIC80", "format": "cell-based", "details": "Aspergillus fumigatus; A. fumigatus 1161; read-out: MIC80", "text": "as §1, §2, §6, §4, §5"}, "[21]": {"test_system": "C. tropicalis CT2", "assay": "Microbroth dilution MIC80", "format": "cell-based", "details": "Candida tropicalis; C. tropicalis CT2; read-out: MIC80", "text": "as §1, §2, §6, §4, §5"}, "[22]": {"test_system": "C. krusei CK1", "assay": "Microbroth dilution MIC80", "format": "cell-based, Candida krusei", "details": "Pichia kudriavzevii; C. krusei CK1; read-out: MIC80", "text": "as §1, §2, §6, §4, §5"}, "[23]": {"test_system": "C. albicans SC5314", "assay": "G. mellonella infection model", "format": "in vivo, Galleria mellonella", "details": "19ak 0.4 μg per larva, FLC 2 μg per larva", "protocol": "The G. mellonella infection model was used to evaluate the in vivo activity of 19ak in terms of survival, fungal burden, and histological features. A total of 60 larvae of similar size were selected and randomly allocated to four groups. The last right foreleg of each larva was injected with 10 μL of C. albicans SC5314 suspension (2 × 10^7 CFU/mL). Two hours after infection, the larvae were injected with 10 μL of drug or vehicle as follows for the four groups: 19ak (0.4 μg per larva), FLC (2 μg per larva), control (PBS), and blank control (no injection with C. albicans but injections of sterile PBS twice). The data for the blank control are not shown because this group survived well during the experiment. Failure to respond to light contact with forceps was considered a sign of larval death. In the survival assay, the number of surviving larvae in each group was calculated at the same time every day for 4 days.\nTo determine fungal burden, larval infection and treatment were performed as described above with groups of 30 larvae each. Each day, five larvae were randomly selected from each group and homogenized with glass beads in 0.5 mL of sterile PBS. The homogenate was serially diluted with sterile PBS, and 5 μL was spread on a yeast-peptone-dextrose solid plate ([62]). Experiments were performed at least three times independently.\nWe also conducted histopathological studies to explore the therapeutic effects of the drugs on G. mellonella fungal infection. First, the groups of larvae were infected as described above. After 48 h, three larvae from each group were randomly selected and fixed in 4% paraformaldehyde for sectioning and Periodic acid-Schiff (PAS) staining. The tissue was observed and photographed under an Olympus microscope with 40 × magnification (IX71, Olympus, Tokyo, Japan). The experiments were performed independently a minimum of three times."}, "[24]": {"test_system": "C. albicans Gu5", "assay": "microbe, parasite or virus in culture", "format": "cell-based", "details": "Candida albicans; C. albicans Gu5; read-out: MIC80", "text": "as §1, §2, §6, §4, §5"}, "[25]": {"test_system": "C. albicans G5", "assay": "microbe, parasite or virus in culture", "format": "cell-based", "details": "Candida albicans; C. albicans G5; read-out: MIC80", "text": "as §1, §2, §6, §4, §5"}},
  "data": [
    {"smiles": "OC(Cn1cncn1)(Cn1cncn1)c1ccc(F)cc1F", "note": "[FLC, fluconazole, reference compound]", "values": [
      {"measurement": "MIC", "setting": "[1]", "value": "> 64", "unit": "µg/mL"},
      {"measurement": "MIC", "setting": "[2]", "value": 2, "unit": "µg/mL"},
      {"measurement": "MIC", "setting": "[3]", "value": 2, "unit": "µg/mL"},
      {"measurement": "MIC80", "setting": "[4]", "value": 1, "unit": "µg/mL"},
      {"measurement": "Change of MIC after repeated exposure", "setting": "[5]", "value": "significant increase in the MIC value"},
      {"measurement": "MIC80", "setting": "[6]", "value": "> 128", "unit": "µg/mL"},
      {"measurement": "MIC80", "setting": "[7]", "value": 0.25, "unit": "µg/mL"},
      {"measurement": "MIC80", "setting": "[8]", "value": 1, "unit": "µg/mL"},
      {"measurement": "MIC80", "setting": "[9]", "value": 2, "unit": "µg/mL"},
      {"measurement": "MIC80", "setting": "[10]", "value": 2, "unit": "µg/mL"},
      {"measurement": "MIC80", "setting": "[11]", "value": 64, "unit": "µg/mL"},
      {"measurement": "MIC80", "setting": "[12]", "value": 64, "unit": "µg/mL"},
      {"measurement": "MIC80", "setting": "[13]", "value": "> 128", "unit": "µg/mL"},
      {"measurement": "MIC80", "setting": "[14]", "value": 8, "unit": "µg/mL"},
      {"measurement": "MIC80", "setting": "[15]", "value": "> 128", "unit": "µg/mL"},
      {"measurement": "MIC80", "setting": "[16]", "value": 1, "unit": "µg/mL"},
      {"measurement": "MIC80", "setting": "[17]", "value": 1, "unit": "µg/mL"},
      {"measurement": "MIC80", "setting": "[18]", "value": "> 128", "unit": "µg/mL"},
      {"measurement": "MIC80", "setting": "[19]", "value": 2, "unit": "µg/mL"},
      {"measurement": "MIC80", "setting": "[20]", "value": "> 64", "unit": "µg/mL"},
      {"measurement": "MIC80", "setting": "[21]", "value": 2, "unit": "µg/mL"},
      {"measurement": "MIC80", "setting": "[22]", "value": 2, "unit": "µg/mL"},
      {"measurement": "Histopathology of infected larvae", "setting": "[23]; 48 h, PAS staining", "value": "fewer infected areas"},
      {"measurement": "Fungal burden of infected larvae", "setting": "[23]; compared with the control group", "value": "greatly reduced the fungal burden"},
      {"measurement": "MIC80", "setting": "[24]", "value": "> 128", "unit": "µg/mL"},
      {"measurement": "MIC80", "setting": "[25]", "value": "> 128", "unit": "µg/mL"}
    ]}
  ]
}
